Reference: patent US7314716B2, “Gustducin γ subunit materials and methods” (Mount Sinai School of Medicine, priority 1999, dated 2008)

How the values were obtained:
[1] = test system: murine taste tissue; settings: shown previously; cited from earlier work
[2] = test system: murine taste tissue; test: Rapid time course quench-flow IP3 generation in murine taste tissue; type: biochemical, mouse; settings: addition to murine taste tissue homogenate supernatant
Procedure: To confirm that gustducin γ subunit does indeed function in taste transduction rapid time course quench-flow experiments were carried out essentially as described in Tarelius et al., pp. 193–202 in Spielman et al., Eds., Experimental Cell Biology of Taste and Olfaction. Current Techniques & Protocols, CRC Press, Boca Raton (1995). […] Furthermore, it has been shown that the denatonium response depends upon a novel phospholipase C (PLC) β2 isotype specifically expressed in taste receptor cells.
Tongues were excised from 6 to 8 week old female SWR mice, and lingual papillae removed. One vallate and two foliate papillae and nongustatory control tissue from the dorsal eminence of the peeled epithelium were placed in ice-cold MOPS buffer pH 6.9 (50 mM MOPS, 100 mM NaCl, 0.081 mM CaCl2 and 2.5 mM MgCl2), containing 10 mM EGTA, 1 mM DTT, and a protease inhibitor cocktail [1 mg/ml, specific for serine, cysteine, aspartic and metallo-proteinases (Sigma)]. Tissue collected from twenty-five tongues was homogenized in MOPS-EGTA buffer pH 6.9, without the enzyme inhibitors, and centrifuged (1000×g for 20 min. at 4° C.). The recovered supernatant (at a protein concentration of about 30 μg/ml), was used for rapid kinetic experiments. […]

[3] = test system: gustducin α subunit; test: Trypsin sensitivity assay of gustducin α subunit activation by denatonium-stimulated taste membranes; type: biochemical
Procedure: To confirm this idea, yet another trypsin sensitivity assay was utilized.
Five μl aliquots of in vitro translated gustducin α subunit were incubated with 5 μg of purified taste membranes or control non-taste membranes, 0.1 mM GDP, 1 μM GTPγS, with or without 5 mM of the bitter compound denatonium, plus a 10 μl aliquot of cotranslated β1/gustducin γ subunit or β2/γ2 dimer, or 10 μl rabbit reticulocyte lysate (the minus βγ control) for 1 hour at 30° C., followed by digestion with trypsin as described in Ming et al., Proc. Natl. Acad. Sci. USA, 95: 8933–8938 (1998).

[4] = taste receptor-containing membranes stimulated by 5 mM denatonium

| Compound | generation of IP3 in control non-taste tissue [1] | generation of IP3 relative to basal level [2] | enhancement of activation of gustducin α subunit ([3]; control non-taste membranes) | enhancement of activation of gustducin α subunit [3, 4] |
| --- | --- | --- | --- | --- |
| CC[N+](CC)(CC(=O)Nc1c(C)cccc1C)Cc1ccccc1 [denatonium benzoate] | not in control non-taste tissue | slightly more than twice the basal level |  |  |
| CC(=O)OC[C@H]1O[C@@](COC(C)=O)(O[C@H]2O[C@H](COC(C)=O)[C@@H](OC(C)=O)[C@H](OC(C)=O)[C@H]2OC(C)=O)[C@@H](OC(C)=O)[C@@H]1OC(C)=O [sucrose octa-acetate] | not in control non-taste tissue |  |  |  |
| β1/gustducin γ subunit: cotranslated β1/gustducin γ subunit dimer |  |  | did not enhance activation | enhanced activation |
| β2/γ2: cotranslated β2/γ2 dimer [reference compound] |  |  |  | did not enhance activation |
